Experiment [1] concerns GPIbα. As to the kind of experiment: Inhibition of 125I LJ-Ib1 antibody binding to platelets, no modulator. The protocol: (§1) To assess the inhibitory activity of p5E extracts on antibody binding, a concentration of LJ-Ib1 was first selected which would, in the absence of p5E extracts, provide half-maximal binding.
LJ-Ib1 was iodinated by the procedure of Fraker, D.J. et al., Biochem. Biophys. Res. Commun., 80, 849-857 (1978) using I^125 from Amersham, Arlington Heights, IL and Iodogen (Pierce Chemical Co., Rockford, IL). Washed platelets were prepared by the albumin density gradient technique of Walsh, et al., Br. J. Haematol., 36, 281-298 (1977), and used at a count of 1 x 10^8 /ml.
The p5E polypeptide extract was purified according to the procedure of Example 4 including final purification of the urea-solubilized inclusion body preparation by dialysis against 6.0M guanidine and urea solutions followed by Q-Sepharose® chromatography.
To evaluate binding, platelets were incubated for 30 minutes at 22-25° C. with LJ-Ib1 (10 μg/ml) and concentrations of purified p5E protein (.002-10.0 μMolar) as indicated in FIGS. 3A and 3B. Inhibition was plotted in the presence of 2 μg/ml botrocetin, Sigma Chemical Co., St. Louis, MO, (FIG. 3B) and in the absence of botrocetin (FIG. 3A).
Less than 5 percent of the ^125 I label bound to the platelets was contributed by labelled substances other than LJ-Ib1 as determined by binding competition experiments in the presence of a 100 fold excess of unlabelled LJ-Ib1. Background labelling was subtracted from data points. Binding of ^125 I LJ-Ib1 was expressed as a percentage of a control assay lacking recombinant polypeptides. […] It is known that botrocetin induces in circulating multisubunit von Willebrand factor and single subunits thereof a conformational change which enhances or permits binding to the GPIbα receptor. […] Structural similarity is therefore indicated.
The interaction the mutant molecules with GPIbα was evaluated using an assay (Sugimoto, M. et al., Biochemistry, 30, 5202-5209 (1991)) based on inhibition of binding of antibody LJ-Ib1 to platelets. The corresponding IC50 values (concentration of fragment required to inhibit 50% of antibody binding) are presented in Table 2 (no modulator) and Table 3 (botrocetin added).
The interaction of rvWF^441-733 with GPIbα was measured by the ability of rvWF^441-733 to inhibit the binding of an anti-GPIbα monoclonal antibody, LJ-IB1, to platelets. This assay, previously described in detail, (Sugimoto, M. et al., Biochemistry, 30, 5202-5208 (1991)) offers the advantage that the binding of LJ-Ib1, unlike that of native vWF, is not dependent on the presence of modulators, like ristocetin or botrocetin. Binding by vWF^441-733 to GPIbα is thought to block the region of GPIbα to which LJ-Ib1 binds.

The test system of experiment [2] is GPIbα. As to the kind of experiment: Inhibition of 125I LJ-Ib1 antibody binding to platelets in the presence of botrocetin. The conditions noted are these: botrocetin 2 μg/ml; LJ-Ib1 10 μg/ml; purified p5E protein; read-out: 50% inhibition of 125I LJ-Ib1 binding to platelets. The protocol: as §1
LJ-Ib1 was iodinated by the procedure of Fraker, D.J. et al., Biochem. Biophys. Res. Commun., 80, 849-857 (1978) using I^125 from Amersham, Arlington Heights, IL and Iodogen (Pierce Chemical Co., Rockford, IL). Washed platelets were prepared by the albumin density gradient technique of Walsh, et al., Br. J. Haematol., 36, 281-298 (1977), and used at a count of 1 x 10^8 /ml. […]
Less than 5 percent of the ^125 I label bound to the platelets was contributed by labelled substances other than LJ-Ib1 as determined by binding competition experiments in the presence of a 100 fold excess of unlabelled LJ-Ib1. […] Binding of ^125 I LJ-Ib1 was expressed as a percentage of a control assay lacking recombinant polypeptides. […]
The interaction the mutant molecules with GPIbα was evaluated using an assay (Sugimoto, M. et al., Biochemistry, 30, 5202-5209 (1991)) based on inhibition of binding of antibody LJ-Ib1 to platelets. […]
The interaction of rvWF^441-733 with GPIbα was measured by the ability of rvWF^441-733 to inhibit the binding of an anti-GPIbα monoclonal antibody, LJ-IB1, to platelets. […]

In experiment [3] the test system is NMC-4 antibody. As to the kind of experiment: Immunoblotting with conformation-dependent monoclonal antibody NMC-4. Type of experiment: binding, murine. The protocol:
Polypeptides expressed from p7E, p7D and pJD18 were further characterized by immunoblotting ("Western blotting") according to a standard procedure Burnett et al., A. Anal. Biochem., 112, 195-203, (1981) and as recommended by reagent suppliers. Samples containing approximately 10 μg of protein from the urea-solubilized and dialyzed inclusion body extracts of host cells (containing p7E, p7D and pJD18 plasmids) were subjected to electrophoresis on 10% polyacrylamide gels, Laemli, U.K. Nature, 227, 680-685 (1970), in the presence of 2% concentration of sodium dodecyl sulfate.
The proteins were blotted and immobilized onto a nitrocellulose sheet (Schleicher and Schuell, Keene, NH) and the pattern was then visualized using immunoreactivity.
The secondary antibody (^125 I-rabbit anti-mouse IgG), labelled by the method of Fraker, P.J. et al. Biochem. Biophys. Res. Commun., 80, 849-857 (1978)), was incubated for 60 minutes at 25° C. on the nitrocellulose sheet. After rinsing, the sheet was developed by autoradiography.
NMC-4 however, has as its epitope the domain of the von Willebrand factor subunit which contains the glycoprotein Ib binding site. […] Id. at 17903. […]
In general terms: In western blotting, separated proteins are transferred to a membrane and probed.

Setting [4] is: oxidized form (Cys509-Cys695 bond), absence of modulators, range of results over n experiments, read-out: (Oxidized) IC50.
The mark [5] stands for this setting: reduced/alkylated form, absence of modulators, range of results over n experiments, read-out: (Reduced/alkylated) IC.

Regarding “rvWF^441-696: C-terminal deletion fragment of the p5E vWF polypeptide terminating at residue 696”, the IC50 in experiment [1] (setting [4]) is 1000 to 1300 nM; in experiment [1] (setting [5]), above 4000 nM. Moreover, in experiment [1] (reduced and alkylated form, Table 2), the “Ability to inhibit LJ-Ib1 binding to platelets / affinity for GPIbα relative to rvWF^441-733” value is reported as “greatly reduced ability to inhibit LJ-Ib1 binding to platelets”.

As to “rvWF^441-700: C-terminal deletion fragment of the p5E vWF polypeptide terminating at residue 700”, the IC50 in experiment [1] (setting [4]) was 2000 to 3100 nM; in experiment [1] (setting [5]), 500 nM.

For the substance “rvWF^441-733: recombinant vWF residue 441-733 fragment from p5E; Cys 459, 462, 464, 471, 474 replaced by Gly; Cys509-Cys695 retained; oxidized or reduced/alkylated”, the IC50 in experiment [2] is below 100 nM; in experiment [1] (setting [4]), 3000 to 5000 nM; in experiment [1] (setting [5]) it was 70 to 300 nM; in experiment [1] (without botrocetin, LJ-Ib1 10 μg/ml, purified p5E protein, read-out: Fifty percent inhibition of 125I LJ-Ib1 binding to platelets) it was 10000 nM. In addition, the “IC50 of reduced and alkylated form relative to oxidized form” value in experiment [1] (absence of modulator, FIG. 3A) is “more than ten fold lower”. Besides, in experiment [3] (nonreducing conditions, single chain species, immunoblot), the “Increase in binding affinity for NMC-4 compared to cysteine-free p7E species” value is around 120 fold. Moreover, the “Affinity for NMC-4 after electrophoresis under reducing conditions” value in experiment [3] (reducing conditions, 100 mM DTT) is “remarkably decreased affinity for NMC-4”.

Take “rvWF^441-704: C-terminal deletion fragment of the p5E vWF polypeptide terminating at residue 704”: the IC50 in experiment [1] (setting [4]) is 2600 to 3200 nM; in experiment [1] (setting [5]), 30 to 40 nM.

For the origin of these results see patent publication US5900476A, “Therapeutic domains of van Willebrand factor” (The Scripps Research Institute, priority 1992, dated 1999).
